Test results reported in patent publication US9663508B2, “Biaryl acyl-sulfonamide compounds as sodium channel inhibitors” (AMGEN INC., priority 2013, dated 2017).
pIC50: −log10 of the molar value.

Each compound was assayed against human Nav1.7 (Homo sapiens (Human), UniProt Q15858) (assay: Nav 1.7 in vitro PatchXpress (PX) assay). Settings: not given.
Type: cell-based

Sequence of human Nav1.7 (Q15858 whole entry): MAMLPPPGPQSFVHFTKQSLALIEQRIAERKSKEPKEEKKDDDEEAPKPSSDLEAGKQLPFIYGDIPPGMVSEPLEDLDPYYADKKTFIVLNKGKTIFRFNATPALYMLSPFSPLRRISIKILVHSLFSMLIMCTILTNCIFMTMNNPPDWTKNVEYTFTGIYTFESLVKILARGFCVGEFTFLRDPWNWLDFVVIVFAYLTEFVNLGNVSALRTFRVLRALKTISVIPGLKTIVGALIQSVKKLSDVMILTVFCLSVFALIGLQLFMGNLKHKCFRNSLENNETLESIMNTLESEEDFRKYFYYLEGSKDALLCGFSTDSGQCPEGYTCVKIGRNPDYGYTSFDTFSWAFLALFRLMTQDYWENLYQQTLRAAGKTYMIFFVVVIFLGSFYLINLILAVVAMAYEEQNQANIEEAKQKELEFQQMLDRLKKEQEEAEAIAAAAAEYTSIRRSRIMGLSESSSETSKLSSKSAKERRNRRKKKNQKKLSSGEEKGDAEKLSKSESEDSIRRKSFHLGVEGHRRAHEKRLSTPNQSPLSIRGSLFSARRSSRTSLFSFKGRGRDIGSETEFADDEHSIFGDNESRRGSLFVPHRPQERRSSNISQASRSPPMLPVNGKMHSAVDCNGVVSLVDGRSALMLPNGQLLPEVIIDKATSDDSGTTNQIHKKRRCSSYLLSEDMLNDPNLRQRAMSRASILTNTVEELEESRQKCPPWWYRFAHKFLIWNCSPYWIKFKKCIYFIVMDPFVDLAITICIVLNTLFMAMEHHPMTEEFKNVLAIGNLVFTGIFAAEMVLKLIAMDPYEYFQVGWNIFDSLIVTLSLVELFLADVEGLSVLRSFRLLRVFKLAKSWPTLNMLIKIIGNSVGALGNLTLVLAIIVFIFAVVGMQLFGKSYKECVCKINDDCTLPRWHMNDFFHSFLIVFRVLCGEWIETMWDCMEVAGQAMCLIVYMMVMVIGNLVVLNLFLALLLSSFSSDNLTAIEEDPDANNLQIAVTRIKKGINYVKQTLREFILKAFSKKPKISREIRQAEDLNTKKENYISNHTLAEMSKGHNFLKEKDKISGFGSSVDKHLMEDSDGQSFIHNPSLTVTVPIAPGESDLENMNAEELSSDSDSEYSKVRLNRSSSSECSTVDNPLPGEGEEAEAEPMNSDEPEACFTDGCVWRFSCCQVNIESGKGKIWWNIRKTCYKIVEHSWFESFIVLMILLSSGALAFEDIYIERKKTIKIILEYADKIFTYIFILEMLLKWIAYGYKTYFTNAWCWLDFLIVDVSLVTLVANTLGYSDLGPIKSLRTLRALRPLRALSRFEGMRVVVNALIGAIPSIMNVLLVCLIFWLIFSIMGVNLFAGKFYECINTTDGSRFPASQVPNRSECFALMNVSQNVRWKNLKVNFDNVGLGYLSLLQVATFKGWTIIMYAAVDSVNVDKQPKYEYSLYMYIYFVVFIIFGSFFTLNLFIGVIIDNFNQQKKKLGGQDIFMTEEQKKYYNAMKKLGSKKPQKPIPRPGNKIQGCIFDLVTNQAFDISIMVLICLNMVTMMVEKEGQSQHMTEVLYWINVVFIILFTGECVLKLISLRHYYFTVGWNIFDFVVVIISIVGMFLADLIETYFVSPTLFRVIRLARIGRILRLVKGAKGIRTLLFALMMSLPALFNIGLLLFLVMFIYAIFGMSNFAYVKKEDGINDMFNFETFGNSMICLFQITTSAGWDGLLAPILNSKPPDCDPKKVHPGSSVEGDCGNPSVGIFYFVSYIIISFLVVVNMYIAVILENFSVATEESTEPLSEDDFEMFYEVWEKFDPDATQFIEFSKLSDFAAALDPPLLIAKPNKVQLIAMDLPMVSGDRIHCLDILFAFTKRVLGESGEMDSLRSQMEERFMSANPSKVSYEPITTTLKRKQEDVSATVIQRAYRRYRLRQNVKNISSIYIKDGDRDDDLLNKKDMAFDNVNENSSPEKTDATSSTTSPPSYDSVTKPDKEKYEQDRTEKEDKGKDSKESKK

| pIC50 | SMILES |
| --- | --- |
| 7.27 | COc1cc(C(=O)NS(C)(=O)=O)ccc1-c1cnc(Oc2cc(Cl)cc(Cl)c2)c(C(F)F)c1 [Example 382, 4-(6-(3,5-dichlorophenoxy)-5-(difluoromethyl)-3-pyridinyl)-3-methoxy-N-(methylsulfonyl)benzamide] |
| 7.12 | Cc1cc(C(=O)NS(C)(=O)=O)c(F)cc1-c1cnc(O[C@@H]2CCCC(C)(C)C2)c(Cl)c1 [Example 687, 4-(5-chloro-6-(((1R)-3,3-dimethylcyclohexyl)oxy)-3-pyridinyl)-2-fluoro-5-methyl-N-(methylsulfonyl)benzamide, 4-(5-chloro-6-(((1S)-3,3-dimethylcyclohexyl)oxy)-3-pyridinyl)-2-fluoro-5-methyl-N-(methylsulfonyl)benzamide] |
| 7.22 | Cc1cc(Oc2ncc(-c3ccc(C(=O)NS(C)(=O)=O)cc3OC(F)F)cc2Cl)ccc1Cl [Example 453, 4-(5-chloro-6-(4-chloro-3-methylphenoxy)-3-pyridinyl)-3-(difluoromethoxy)-N-(methylsulfonyl)benzamide] |
| 6.97 | Cc1cc(C(=O)NS(C)(=O)=O)c(F)cc1-c1cnc(Oc2ccc(OC(C)C)cc2)c(Cl)c1 [Example 663, 4-(5-chloro-6-(4-(1-methylethoxy)phenoxy)-3-pyridinyl)-2-fluoro-5-methyl-N-(methylsulfonyl)benzamide] |
| 7.19 | CS(=O)(=O)NC(=O)c1ccc(-c2cnc(Oc3cccc(C(F)(F)F)c3)c(Cl)c2)c(OC(F)F)c1 [Example 456, 4-(5-chloro-6-(3-(trifluoromethyl)phenoxy)-3-pyridinyl)-3-(difluoromethoxy)-N-(methylsulfonyl)benzamide] |
| 7.33 | COc1cc(C(=O)NS(C)(=O)=O)c(F)cc1-c1cnc(Oc2cccc(Cl)c2C)c(Cl)c1 [Example 704, 4-(5-chloro-6-(3-chloro-2-methylphenoxy)-3-pyridinyl)-2-fluoro-5-methoxy-N-(methylsulfonyl)benzamide] |
| 7.18 | COc1cc(C(=O)NS(C)(=O)=O)ccc1-c1cnc(Oc2ccc(Cl)c(OC(F)(F)F)c2)c(Cl)c1 [Example 373, 4-(5-chloro-6-(4-chloro-3-(trifluoromethoxy)phenoxy)-3-pyridinyl)-3-methoxy-N-(methylsulfonyl)benzamide] |
| 7.00 | COc1cc(C(=O)NS(C)(=O)=O)ccc1-c1cnc(Oc2cc(F)ccc2F)c(Cl)c1 [Example 363, 4-(5-chloro-6-(2,5-difluorophenoxy)-3-pyridinyl)-3-methoxy-N-(methylsulfonyl)benzamide] |
| 7.04 | COc1ccc(Cl)c(Oc2ncc(-c3ccc(C(=O)NS(C)(=O)=O)cc3OC)cc2Cl)c1 [Example 369, 4-(5-chloro-6-(2-chloro-5-methoxyphenoxy)-3-pyridinyl)-3-methoxy-N-(methylsulfonyl)benzamide] |
| 7.00 | CS(=O)(=O)NC(=O)c1ccc(-c2cnc(Oc3ccc4ccccc4c3)c(Cl)c2)c(OC2COC2)c1 [Example 424, 4-(5-chloro-6-(2-naphthalenyloxy)-3-pyridinyl)-N-(methylsulfonyl)-3-(3-oxetanyloxy)benzamide] |
| 7.03 | COc1cc(C(=O)NS(C)(=O)=O)ccc1-c1cnc(OCCc2ccccc2)c(C#N)c1 [Example 539, 4-(5-cyano-6-(2-phenylethoxy)-3-pyridinyl)-3-methoxy-N-(methylsulfonyl)benzamide] |
| 7.16 | COc1cc(C(=O)NS(C)(=O)=O)c(F)cc1-c1cnc(OC2CCC2)c(Cl)c1 [Example 702, 4-(5-chloro-6-(cyclobutyloxy)-3-pyridinyl)-2-fluoro-5-methoxy-N-(methylsulfonyl)benzamide] |
| 7.02 | Cc1ccc(Oc2ncc(-c3ccc(C(=O)NS(C)(=O)=O)cc3OC(F)F)cc2Cl)cc1C [Example 459, 4-(5-chloro-6-(3,4-dimethylphenoxy)-3-pyridinyl)-3-(difluoromethoxy)-N-(methylsulfonyl)benzamide] |
| 7.03 | COc1cc(C(=O)NS(C)(=O)=O)ccc1-c1cnc(Oc2ccc(Cl)cc2)c(Cl)c1 [Example 350, 4-(5-chloro-6-(4-chlorophenoxy)-3-pyridinyl)-3-methoxy-N-(methylsulfonyl)benzamide] |
| 7.26 | Cc1cc(C(=O)NS(C)(=O)=O)c(F)cc1-c1cnc(O[C@@H](C)c2cccc3ccccc23)c(Cl)c1 [Example 682, 4-(5-chloro-6-((1S)-1-(1-naphthalenyl)ethoxy)-3-pyridinyl)-2-fluoro-5-methyl-N-(methylsulfonyl)benzamide] |
| 7.19 | COc1cc(C(=O)NS(C)(=O)=O)ccc1-c1cnc(Oc2cc(C)c(Cl)c(C)c2)c(Cl)c1 [Example 364, 4-(5-chloro-6-(4-chloro-3,5-dimethylphenoxy)-3-pyridinyl)-3-methoxy-N-(methylsulfonyl)benzamide] |
| 7.16 | Cc1ccc(Oc2ncc(-c3ccc(C(=O)NS(C)(=O)=O)cc3OC(F)F)cc2Cl)c(Cl)c1 [Example 465, 4-(5-chloro-6-(2-chloro-4-methylphenoxy)-3-pyridinyl)-3-(difluoromethoxy)-N-(methylsulfonyl)benzamide] |

Same assay, conditions: at 5 µM (5 uM)

| SMILES | NAV 1.7 PX inhibition |
| --- | --- |
| COc1nccc(C)c1-c1cc(C(=O)NS(C)(=O)=O)ccc1-c1cnc(OCC(C)C)c(Cl)c1 [Example 820, 4-(5-Chloro-6-Isobutoxypyridin-3-yl)-3-(2-Methoxy-4-Methylpyridin-3-yl)-N-(Methylsulfonyl)Benzamide] | 23% |

Same assay, conditions: in-vitro Nav 1.7 PX data

| pIC50 | SMILES |
| --- | --- |
| 7.08 | CC[C@@H](Oc1ncc(-c2cc(F)c(C(=O)NS(C)(=O)=O)cc2OC)cc1Cl)C(F)(F)F [Example 736, 4-(5-chloro-6-(((1R)-1-(trifluoromethyl)propyl)oxy)-3-pyridinyl)-2-fluoro-5-methoxy-N-(methylsulfonyl)benzamide] |
| 6.77 | Cc1cc(C(=O)NS(C)(=O)=O)c(F)cc1-c1cnc(Oc2cc(Cl)cc(Cl)c2)c(C(F)(F)F)c1 [Example 817, 4-(6-(3,5-Dichlorophenoxy)-5-(Trifluoromethyl)Pyridin-3-yl)-2-Fluoro-5-Methyl-N-(Methylsulfonyl)Benzamide] |
| 7.03 | COc1cc(C(=O)NS(C)(=O)=O)c(F)cc1-c1cnc(Oc2ccc(F)cc2F)c(Cl)c1 [Example 742, 4-(5-chloro-6-(2,4-difluorophenoxy)-3-pyridinyl)-2-fluoro-5-methoxy-N-(methylsulfonyl)benzamide] |
| 7.21 | COc1cc(C(=O)NS(C)(=O)=O)c(F)cc1-c1cnc(Oc2cccc(C)c2Cl)c(Cl)c1 [Example 760, 4-(5-chloro-6-(2-chloro-3-methylphenoxy)-3-pyridinyl)-2-fluoro-5-methoxy-N-(methylsulfonyl)benzamide] |
| 7.13 | CS(=O)(=O)NC(=O)c1ccc(-c2cnc(Oc3c(F)ccc(F)c3F)c(Cl)c2)c(Cl)c1 [Example 778, 3-chloro-4-(5-chloro-6-(2,3,6-trifluorophenoxy)-3-pyridinyl)-N-(methylsulfonyl)benzamide] |
| 6.38 | Cc1cc(C(=O)NS(C)(=O)=O)c(F)cc1-c1ccc(C(F)(F)F)c(Cl)c1 [Example 807, 3′-chloro-5-fluoro-2-methyl-N-(methylsulfonyl)-4′-(trifluoromethyl)-4-biphenylcarboxamide] |
| 7.32 | COc1cc(C(=O)NS(C)(=O)=O)c(F)cc1-c1cnc(Oc2ccc(F)c3c2CCC3)c(Cl)c1 [Example 757, 4-(5-chloro-6-((7-fluoro-2,3-dihydro-1H-inden-4-yl)oxy)-3-pyridinyl)-2-fluoro-5-methoxy-N-(methylsulfonyl)benzamide] |
| 7.17 | COc1cc(C(=O)NS(C)(=O)=O)c(F)cc1-c1cnc(Oc2c(F)ccc(Cl)c2F)c(Cl)c1 [Example 744, 4-(5-chloro-6-(3-chloro-2,6-difluorophenoxy)-3-pyridinyl)-2-fluoro-5-methoxy-N-(methylsulfonyl)benzamide] |
| 7.01 | COc1cc(C(=O)NS(C)(=O)=O)c(F)cc1-c1cnc(Oc2ccc(C)c(Cl)c2)c(Cl)c1 [Example 751, 4-(5-chloro-6-(3-chloro-4-methylphenoxy)-3-pyridinyl)-2-fluoro-5-methoxy-N-(methylsulfonyl)benzamide] |
| 7.02 | COc1cc(C(=O)NS(C)(=O)=O)c(F)cc1-c1cnc(Oc2c(F)ccc(C)c2F)c(Cl)c1 [Example 759, 4-(5-chloro-6-(2,6-difluoro-3-methylphenoxy)-3-pyridinyl)-2-fluoro-5-methoxy-N-(methylsulfonyl)benzamide] |
| 7.06 | COc1cc(C(=O)NS(C)(=O)=O)c(F)cc1-c1cnc(N[C@H]2CC23CCCC3)c(Cl)c1 [Example 771, 4-(5-chloro-6-((1S)-spiro[2.4]hept-1-ylamino)-3-pyridinyl)-2-fluoro-5-methoxy-N-(methylsulfonyl)benzamide] |
| 7.30 | COc1cc(C(=O)NS(C)(=O)=O)ccc1-c1cnc(Cc2ccc(Cl)c(Cl)c2)c(Cl)c1 [Example 793, 4-(5-chloro-6-(3,4-dichlorobenzyl)pyridin-3-yl)-3-methoxy-N-(methylsulfonyl)benzamide] |
| 7.13 | COc1cc(C(=O)NS(C)(=O)=O)c(F)cc1-c1cnc(NCC2CC(C)(C)C2)c(Cl)c1 [Example 723, 4-(5-chloro-6-(((3,3-dimethylcyclobutyl)methyl)amino)-3-pyridinyl)-2-fluoro-5-methoxy-N-(methylsulfonyl)benzamide] |
| 6.30 | Cc1cc(C(=O)NS(C)(=O)=O)c(F)cc1-c1cnc(-c2cc(F)cc(F)c2)c(Cl)c1 [Example 834, 4-(5-Chloro-6-(3,5-Difluorophenyl)-3-Pyridinyl)-2-Fluoro-5-Methyl-N-(Methylsulfonyl)Benzamide] |
| 7.14 | CS(=O)(=O)NC(=O)c1cc(OC(F)F)c(-c2cnc(Oc3c(F)ccc(F)c3F)c(Cl)c2)cc1F [Example 785, 4-(5-chloro-6-(2,3,6-trifluorophenoxy)-3-pyridinyl)-5-(difluoromethoxy)-2-fluoro-N-(methylsulfonyl)benzamide] |
| 6.78 | Cc1cc(C(=O)NS(C)(=O)=O)c(F)cc1-c1cnc(-c2ccc(Cl)c(Cl)c2)c(Cl)c1 [Example 835, 4-(5-chloro-6-(3,4-dichlorophenyl)-3-pyridinyl)-2-fluoro-5-methyl-N-(methylsulfonyl)benzamide] |
| 6.19 | CC(C)COc1ncc(-c2cc(F)c(C(=O)NS(C)(=O)=O)cc2F)cc1-c1cc(F)cc(F)c1 [Example 838, 4-(5-(3,5-difluorophenyl)-6-(2-methylpropoxy)-3-pyridinyl)-2,5-difluoro-N-(methylsulfonyl)benzamide] |
